Like-named read-outs stand apart in the source and are kept apart here.
Experiments:
[1] = test system: VX2 tumor bearing rabbits, metastatic iliacal lymph nodes; experiment: MR imaging of lymph node metastases in VX2 tumor rabbit model after intravenous injection; assay type: in vivo, New Zealand White rabbits; conditions: for delineation / differentiation of functional and metastatic lymph node tissue: i.v., MS-325 0.05 mmol Gd/kg, Gd-DTPA 0.2 mmol Gd/kg, intraindividual comparison
Experimental: New Zealand White rabbits (3-4 kg, n=6) were inoculated intramuscularly into the thigh with 2 to 3 pieces (1×1 mm) of VX2 carcinoma cells to produce metastases in […] nodes. The imaging experiments were performed 3 to 6 weeks after the injection of tumor cells. […] Contrast agents: […] Imaging: Intraindividual comparison of lymphographic effects in […] nodes. day 1: Gd-DTPA (5 to 120 minutes p.i.). day 2: […] Assessment of technical success and quality of MR imaging, and detection of lymph node metastases. Histology: Microscopic examination after H/E staining; correlation with MR findings.

[2] = test system: guinea pigs with stimulated (enlarged) popliteal lymph nodes; conditions: for ratio of signal intensity lymph node to muscle / % signal enhancement popliteal lymph node: 0.05 mmol/kg i.v. bolus; for % signal enhancement popliteal lymph node: T1-weighted MR 1.5 T
Experimental: Female guinea pigs (370-450 g, n=3) had their lymph nodes stimulated by egg yolk emulsion (0.1 mL) intramuscularly in the thigh and lower legs on six days. MS-325 (0.05 mmol/kg) was administered as an i.v. bolus
MR system: Head scanner (Allegra, 1.5 Tesla; Siemens AG, Erlangen, Germany), T1-weighted sequence (T1-TSE, TR/TE 666/12 ms, slice thickness 1.1 mm, acquisition time 3:49).
Imaging and analysis: The animals were imaged prior to contrast agent administration and 1, 15, 30, 60, 90, 120, and […] post injection. The percent signal intensity enhancement was calculated in the popliteal lymph nodes and in surrounding muscle. The ratio of signal intensity between the lymph node and the surrounding muscle was also determined.

[3] = 5 to 15 min after intravenous injection, 0.05 mmol Gd/kg body weight
[4] = 0 min post injection (prior to contrast agent)

O=C([O-])CN(CCN(CC(=O)[O-])C[C@H](COP(=O)([O-])OC1CCC(c2ccccc2)(c2ccccc2)CC1)N(CC(=O)[O-])CC(=O)[O-])CC(=O)[O-].[Gd+3].[H+].[H+].[H+] [MS-325]
appearance of the metastases (FIGS. 1 and 2, coronal MR images) [1, 3]: remains dark
enhancement in the functional lymph node tissue (FIGS. 1 and 2, coronal MR images) [1, 3]: bright and homogeneous enhancement
enhancement of the metastatic tissue ([1]; after intravenous injection, 0.05 mmol Gd/kg, T1-weighted MR): only a slight enhancement
signal increase in the functional lymph node tissue ([1]; between 5 and 30 min after intravenous injection, 0.05 mmol Gd/kg, T1-weighted MR): rapid and strong signal increase
delineation / differentiation of functional and metastatic lymph node tissue [1]: excellent delineation of the lymph node metastases
ratio of signal intensity lymph node to muscle [2, 4]: 1.2 ± 0.1
% signal enhancement popliteal lymph node [2, 4]: 0 ± 0%
ratio of signal intensity lymph node to muscle ([2]; 1 min post injection): 1.6 ± 0.1
% signal enhancement popliteal lymph node ([2]; 1 min post injection): 87 ± 11%
ratio of signal intensity lymph node to muscle ([2]; 15 min post injection): 1.4 ± 0.1
% signal enhancement popliteal lymph node ([2]; 15 min post injection): 67 ± 11%
ratio of signal intensity lymph node to muscle ([2]; 30 min post injection): 1.4 ± 0.1
% signal enhancement popliteal lymph node ([2]; 30 min post injection): 57 ± 6%
ratio of signal intensity lymph node to muscle ([2]; 60 min post injection): 1.3 ± 0.1
% signal enhancement popliteal lymph node ([2]; 60 min post injection): 45 ± 6%
ratio of signal intensity lymph node to muscle ([2]; 90 min post injection): 1.3 ± 0.1
% signal enhancement popliteal lymph node ([2]; 90 min post injection): 37 ± 4%
ratio of signal intensity lymph node to muscle ([2]; 120 min post injection): 1.3 ± 0.1
% signal enhancement popliteal lymph node ([2]; 120 min post injection): 31 ± 6%
ratio of signal intensity lymph node to muscle ([2]; 2440 min post injection): 1.1 ± 0.2
% signal enhancement popliteal lymph node ([2]; 2440 min post injection): −8 ± 14%
signal and contrast after 24 hours ([2]; after 24 hours, 0.05 mmol/kg): returned to baseline levels
contrast between the lymph node and the surrounding muscle ([2]; after injection, 0.05 mmol/kg): increased
enhancement of stimulated (enlarged) lymph nodes ([2]; after injection, 0.05 mmol/kg): positive and persistent enhancement

O=C([O-])CN(CCN(CC(=O)[O-])CC(=O)O)CCN(CC(=O)[O-])CC(=O)O.[Gd+3] [Gd-DTPA, reference compound]
enhancement in the whole lymph node ([1]; after intravenous injection, 0.2 mmol Gd/kg, T1-weighted MR): only a slight and inhomogeneous enhancement
delineation / differentiation of functional and metastatic lymph node tissue [1]: does not allow an effective differentiation
